The source of these data is BindingDB's records for patent US20250248955 (Longivitron (Suzhou) Biotechnology Co., 2025).

The structures appear in SMILES notation.

The target in this assay is T1, Acetyl-CoA acetyltransferase, mitochondrial (Homo sapiens, UniProt P24752).
T1 sequence (P24752 whole entry): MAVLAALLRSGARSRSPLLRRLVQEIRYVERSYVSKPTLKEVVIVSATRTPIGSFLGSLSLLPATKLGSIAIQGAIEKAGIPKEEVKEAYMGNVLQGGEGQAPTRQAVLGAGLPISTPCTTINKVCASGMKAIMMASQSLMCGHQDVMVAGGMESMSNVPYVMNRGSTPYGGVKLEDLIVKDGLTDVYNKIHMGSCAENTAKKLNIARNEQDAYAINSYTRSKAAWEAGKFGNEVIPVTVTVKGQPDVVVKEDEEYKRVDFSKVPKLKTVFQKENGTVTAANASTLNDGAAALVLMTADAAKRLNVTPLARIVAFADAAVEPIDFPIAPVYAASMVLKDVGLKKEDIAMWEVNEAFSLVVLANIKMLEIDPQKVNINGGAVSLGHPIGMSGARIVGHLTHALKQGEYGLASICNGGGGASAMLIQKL
Briefly: Experimental Method Screening Method of ACAT1 Small Molecule Inhibitors. Here is the method:
ACAT1 can catalyze two molecules of acetyl coenzyme A to reversibly form acetoacetyl coenzyme A. Its activity was measured through the reaction between ACAT1-catalyzed substrate acetoacetyl-coenzyme A and coenzyme A, from which the product acetyl-coenzyme A is produced. Since acetoacetyl-coenzyme A is specifically absorbed in a specific spectrum, the impact on the enzyme activity of ACAT1 can be reflected through the detection of an increase or decrease of absorption in a specific spectrum.ACAT1 recombinant proteins were expressed and purified by Escherichia coli, and the concentration of ACAT1 recombinant proteins obtained was 1 mg/mL. The buffers adopted for ACAT1 small molecule inhibitor screening were 50 mM Tris-HCl (pH 8.1), 20 mM MgCl2, and 40 mM KCl. In 200 μL of enzyme catalytic system, 1 μL of ACAT1 recombinant proteins, the substrate […] whose final concentration was changed from 25 μM to 100 μM through a CPM probe, and small molecule inhibitors at different concentrations were added, respectively.
Regarding `COCOc1ccc(/C=C/C(=O)Nc2ccc(OCCc3ccccc3)cc2)cc1OCOC` [US20250248955, Compound M11], the IC50 (usually the concentration that inhibits the measured activity by half) is 136 µM.

Consider `O=C(/C=C/c1ccc(O)c(O)c1)Nc1ccc(OCCc2ccc(F)cc2)cc1` [US20250248955, Compound M6], for which the midpoint of inhibition, the IC50, lay at 134 µM.

As to `COCOc1ccc(/C=C/C(=O)Nc2ccc(OCCc3ccc(OC)c(OC)c3)cc2)cc1OCOC` [US20250248955, Compound M16], it took 172 µM to reach half-maximal inhibition (IC50). The IC50 values of the last two compounds are within 1.5-fold of each other.

On to `O=C(/C=C/c1ccc(O)c(O)c1)Nc1ccc(OCCc2ccc(O)cc2)cc1` [US20250248955, Compound M8], for which 114 µM corresponded to half-maximal inhibition (IC50).

In the case of `COc1ccc([C@H](O)[C@@H](C)Oc2ccc(OC(=O)/C=C/c3ccc(O)c(O)c3)cc2OC)cc1OC` [US20250248955, Compound M2], the IC50 is greater than 100 µM.

Compound `COc1ccc([C@@H](O)[C@@H](C)Oc2ccc(OC(=O)/C=C/c3ccc(O)c(O)c3)cc2OC)cc1OC` [US20250248955, Compound M3] registered an IC50 greater than 100 µM.

As for `O=C(/C=C/c1ccc(O)c(O)c1)Nc1ccc(OCCc2ccccc2)cc1` [US20250248955, Compound M4], the IC50 came to 112 µM.

On to `COCOc1ccc(/C=C/C(=O)Nc2ccc(OCCc3ccc(C)cc3)cc2)cc1OCOC` [US20250248955, Compound M14], for which half-maximal inhibition (IC50) was put at 111 µM.

In turn, `COCOc1ccc(/C=C/C(=O)Nc2ccc(OCCc3ccc(F)cc3)cc2)cc1OCOC` [US20250248955, Compound M13] came in with an IC50 of 152 µM.

In turn, `COCOc1ccc(/C=C/C(=O)Nc2ccc(OCCc3ccc(O)cc3)cc2)cc1OCOC` [US20250248955, Compound M15] gave an IC50 of 312 µM. Compared with the last compound, the IC50 is about 2.1-fold higher.
